In patent US20130324522A1, “INSECT ODORANT RECEPTOR ANTAGONISTS” (THE ROCKEFELLER UNIVERSITY, priority 2010, published 2013):
pIC50: −log10 of the molar value. Like-named read-outs stand apart in the source and are kept apart here.

Columns and labels:
Format in all cases: cell-based
[1] = biological target: OR8/OR7 (Anopheles gambiae, UniProt Q7PUT5+Q7QCC7); test: Ca2+-imaging of stable HEK293T cell line OR8/OR7; settings: for inhibition at 4 µM: HEK-293T, compound applied at 4 μM, read-out: Percent Inhibition OR8 OR7
Procedure, shortened: (§1)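 Stable HEK293T lines co-expressing the Anopheles ligand-specific OR with co-receptor OR7 (or mouse TRPM8 alone) were seeded on poly-D-lysine at 10,000 cells/well and cultured 2 days. Cells were loaded with Ca-4 dye for 1.5 hr at room temperature, then odorant/compound solutions in HBSS were added on an FDSS6000 reader.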

[2] = biological target: OR28/OR7 (Anopheles gambiae, UniProt A0A1S4GFY3+Q7QCC7); test: Ca2+-imaging of stable HEK293T cell line OR28/OR7; settings: for inhibition at 4 µM: HEK-293T, compound applied at 4 μM, read-out: Percent Inhibition OR28 OR7
Procedure, shortened: as §1

[3] = biological target: T1, Or47a/Or83b (Drosophila melanogaster, UniProt P81921+Q9VNB5); test: Ca2+-imaging of stable Flip-In T-Rex cell line Or47a/Or83b; settings: for inhibition at 4 µM: compound applied at 4 μM, read-out: Percent Inhibition OR47a OR83b
T1 construct: Full-length cDNAs for mosquito (Anopheles gambiae) odorant receptor (OR1, OR2, OR7, OR8, OR28), and fly (Drosophila melanogaster) odorant receptor (Or47a, Or83b); expressed in transfected cells
T1 sequence (P81921 1-385): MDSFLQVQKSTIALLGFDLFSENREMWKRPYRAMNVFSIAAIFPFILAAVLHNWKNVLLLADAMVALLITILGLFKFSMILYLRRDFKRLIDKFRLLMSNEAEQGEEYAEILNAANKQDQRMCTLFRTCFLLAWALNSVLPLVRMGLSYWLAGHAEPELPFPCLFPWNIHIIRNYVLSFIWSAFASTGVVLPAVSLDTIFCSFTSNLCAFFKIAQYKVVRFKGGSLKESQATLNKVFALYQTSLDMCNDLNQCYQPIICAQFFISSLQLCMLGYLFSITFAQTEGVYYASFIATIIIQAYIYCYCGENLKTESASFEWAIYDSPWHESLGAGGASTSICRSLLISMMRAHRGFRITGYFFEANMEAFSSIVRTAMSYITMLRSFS
T1 sequence (Q9VNB5 1-486): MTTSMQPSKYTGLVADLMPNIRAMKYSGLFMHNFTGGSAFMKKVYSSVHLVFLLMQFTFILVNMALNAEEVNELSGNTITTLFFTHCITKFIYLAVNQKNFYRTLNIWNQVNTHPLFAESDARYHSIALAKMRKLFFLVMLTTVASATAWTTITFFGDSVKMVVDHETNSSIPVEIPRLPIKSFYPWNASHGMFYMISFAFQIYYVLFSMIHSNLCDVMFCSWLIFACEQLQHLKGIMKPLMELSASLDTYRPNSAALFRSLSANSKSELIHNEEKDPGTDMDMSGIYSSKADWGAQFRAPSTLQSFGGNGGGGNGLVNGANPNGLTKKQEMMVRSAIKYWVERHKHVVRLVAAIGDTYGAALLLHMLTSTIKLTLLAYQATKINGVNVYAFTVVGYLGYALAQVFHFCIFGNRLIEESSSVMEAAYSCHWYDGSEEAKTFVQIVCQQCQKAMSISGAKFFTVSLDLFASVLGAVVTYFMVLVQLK
Procedure, shortened: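 Flp-In T-REx stable lines (Drosophila Or47a/Or83b or mouse 5HT3), 10,000 cells/well cultured 2 days, induced with tetracycline 1 day before assay.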

[4] = biological target: T2, TRP channel (TRPM8) (Mus musculus, UniProt Q8R4D5); test: Ca2+-imaging of stable HEK293T cell line TRPM8; settings: for inhibition at 4 µM: HEK-293T, compound applied at 4 μM, read-out: Percent Inhibition TRPM8
T2 construct: Full-length cDNAs for mosquito (Anopheles gambiae) odorant receptor (OR1, OR2, OR7, OR8, OR28), and fly (Drosophila melanogaster) odorant receptor (Or47a, Or83b), mouse TRP channel (TRPM8); expressed in transfected cells
Procedure, shortened: as §1

[5] = ligand 1-octen-3-ol 30 μM, read-out: IC50 OR8 OR7
[6] = ligand acetophenone 300 μM, read-out: IC50 OR28 OR7
[7] = ligand pentyl acetate 30 μM, read-out: IC50 OR47a OR83b
[8] = ligand menthol 300 μM, read-out: IC50 TRPM8

T2 sequence (Q8R4D5 whole entry): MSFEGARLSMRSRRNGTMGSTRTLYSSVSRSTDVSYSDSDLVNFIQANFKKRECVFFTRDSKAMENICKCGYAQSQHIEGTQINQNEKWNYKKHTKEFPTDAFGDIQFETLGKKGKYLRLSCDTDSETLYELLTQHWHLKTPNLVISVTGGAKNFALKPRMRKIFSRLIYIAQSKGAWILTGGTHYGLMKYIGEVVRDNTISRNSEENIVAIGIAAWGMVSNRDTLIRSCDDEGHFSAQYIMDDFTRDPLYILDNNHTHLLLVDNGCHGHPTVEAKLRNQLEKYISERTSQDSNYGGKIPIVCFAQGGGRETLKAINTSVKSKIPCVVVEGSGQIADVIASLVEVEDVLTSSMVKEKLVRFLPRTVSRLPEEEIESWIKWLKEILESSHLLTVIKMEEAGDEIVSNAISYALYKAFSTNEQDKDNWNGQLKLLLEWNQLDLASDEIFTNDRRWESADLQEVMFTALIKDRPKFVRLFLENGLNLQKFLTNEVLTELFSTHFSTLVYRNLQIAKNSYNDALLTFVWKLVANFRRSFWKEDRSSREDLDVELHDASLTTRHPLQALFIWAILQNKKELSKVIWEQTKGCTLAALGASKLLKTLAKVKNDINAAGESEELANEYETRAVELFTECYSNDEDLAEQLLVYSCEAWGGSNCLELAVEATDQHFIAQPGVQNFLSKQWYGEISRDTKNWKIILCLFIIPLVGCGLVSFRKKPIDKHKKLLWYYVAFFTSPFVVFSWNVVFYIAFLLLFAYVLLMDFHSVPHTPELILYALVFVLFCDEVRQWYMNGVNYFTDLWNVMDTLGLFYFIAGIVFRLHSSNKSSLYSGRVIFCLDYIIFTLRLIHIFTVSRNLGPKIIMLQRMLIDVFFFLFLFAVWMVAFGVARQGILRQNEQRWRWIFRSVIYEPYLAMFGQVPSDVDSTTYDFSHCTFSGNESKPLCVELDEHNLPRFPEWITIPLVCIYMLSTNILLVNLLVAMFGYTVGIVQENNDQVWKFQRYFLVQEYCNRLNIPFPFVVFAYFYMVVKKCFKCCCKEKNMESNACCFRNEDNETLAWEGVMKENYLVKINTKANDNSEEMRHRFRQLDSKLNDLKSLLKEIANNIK
Chain of OR28/OR7 (A0A1S4GFY3 entry or part of it): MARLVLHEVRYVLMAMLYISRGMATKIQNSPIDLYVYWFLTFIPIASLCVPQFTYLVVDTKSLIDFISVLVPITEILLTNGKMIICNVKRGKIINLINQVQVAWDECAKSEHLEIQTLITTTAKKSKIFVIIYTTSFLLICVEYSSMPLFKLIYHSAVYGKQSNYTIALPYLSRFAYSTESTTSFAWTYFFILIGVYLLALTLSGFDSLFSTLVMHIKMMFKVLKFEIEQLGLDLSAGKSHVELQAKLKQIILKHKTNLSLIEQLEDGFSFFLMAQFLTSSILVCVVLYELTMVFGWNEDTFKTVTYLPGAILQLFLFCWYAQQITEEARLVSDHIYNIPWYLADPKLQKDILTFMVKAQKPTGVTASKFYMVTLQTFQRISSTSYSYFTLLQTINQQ
Chain of OR28/OR7 (Q7QCC7 whole entry): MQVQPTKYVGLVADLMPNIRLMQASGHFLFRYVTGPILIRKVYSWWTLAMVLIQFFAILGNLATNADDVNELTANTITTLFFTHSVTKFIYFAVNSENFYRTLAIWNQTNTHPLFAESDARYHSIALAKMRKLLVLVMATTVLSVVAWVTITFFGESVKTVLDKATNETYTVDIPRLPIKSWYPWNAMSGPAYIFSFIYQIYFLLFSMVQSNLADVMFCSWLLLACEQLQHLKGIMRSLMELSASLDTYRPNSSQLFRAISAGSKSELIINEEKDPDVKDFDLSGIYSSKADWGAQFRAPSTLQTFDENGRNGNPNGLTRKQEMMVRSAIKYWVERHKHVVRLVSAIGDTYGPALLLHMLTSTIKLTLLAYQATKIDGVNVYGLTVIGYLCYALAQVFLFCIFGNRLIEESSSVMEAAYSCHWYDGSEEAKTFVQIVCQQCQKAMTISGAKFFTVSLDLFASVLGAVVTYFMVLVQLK
Chain of OR8/OR7 (Q7QCC7 whole entry): as above
Chain of OR8/OR7 (Q7PUT5 entry or part of it): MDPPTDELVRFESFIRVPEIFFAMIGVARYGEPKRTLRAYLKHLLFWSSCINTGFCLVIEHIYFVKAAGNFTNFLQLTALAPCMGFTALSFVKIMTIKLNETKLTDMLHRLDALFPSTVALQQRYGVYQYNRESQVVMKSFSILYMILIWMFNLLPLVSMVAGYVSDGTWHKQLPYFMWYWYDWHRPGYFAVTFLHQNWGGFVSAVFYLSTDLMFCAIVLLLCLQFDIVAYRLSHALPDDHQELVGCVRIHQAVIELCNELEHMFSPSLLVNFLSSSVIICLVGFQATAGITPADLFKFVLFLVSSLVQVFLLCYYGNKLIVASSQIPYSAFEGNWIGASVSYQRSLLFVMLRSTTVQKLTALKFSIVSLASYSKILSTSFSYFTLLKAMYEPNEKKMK

SMILES	inhibition at 4 µM [1] [%]	inhibition at 4 µM [2] [%]	pIC50 ([3]; Table B, read-out: IC50 OR47a)	inhibition at 4 µM [3] [%]	inhibition at 4 µM [4] [%]	pIC50 ([2]; Table B, read-out: IC50 OR28)	other results
Cc1cc(N(C)C2CCCCC2)nc(SCc2cccc(C(=O)N3CCCC3)c2)n1 [RU-0034108]	< 25	26 to 50	< 6.00	26 to 50	< 25	–	–
O=C(c1ccco1)N(Cc1nccn1Cc1ccccc1Cl)CC1CC1 [RU-0047281]	> 75	> 75	< 6.00	> 75	51 to 74	> 7.00	pIC50 ([1]; Table B, read-out: IC50 OR8): < 6.00; pIC50 ([4]; Table B, read-out: IC50 TRPM8): < 6.00
CC(C)Nc1nc(Cl)nc(NCc2ccccc2)n1 [RU-T9]	–	–	–	–	–	–	pIC50 [1]: < 3.66; pIC50 [2]: < 4.30; pIC50 [3]: < 4.70; pIC50 [4]: < 4.70
CCN(CC)c1onc(-c2ccccc2)c1CN(CC1CCCO1)C(=O)c1ccc2c(c1)OCO2 (stereo not drawn) [RU-0036875]	51 to 74	> 75	< 6.00	51 to 74	< 25	> 7.00	pIC50 ([1]; Table B, read-out: IC50 OR8): < 6.00
CC(C)Nc1nc(Cl)nc(N(C)C(C)C)n1 [RU-T7]	–	–	–	–	–	–	pIC50 [1]: > 5.70; pIC50 [2]: < 4.70; pIC50 [3]: < 4.70; pIC50 [4]: < 4.70
COc1ccc(-c2cc(-c3ccccc3)n(C(=O)CN3CCN(Cc4ccccc4)CC3)n2)cc1 [RU-0038795]	< 25	> 75	< 6.00	51 to 74	< 25	> 7.00	–
CCc1c(C(=O)NCc2cccnc2)cnn1-c1ccccc1 [RU-0048504]	< 25	> 75	–	26 to 50	< 25	> 7.00	–
C=CCN(Cc1nccn1Cc1cccc(F)c1)C(=O)c1ccccc1F [RU-I1]	–	–	–	–	–	–	pIC50 [1, 5]: 4.30 to 4.70; pIC50 [2, 6]: 4.30 to 4.70; pIC50 [3, 7]: < 4.70; pIC50 [4, 8]: < 4.70
O=C(C1CCCC1)N(Cc1nccn1CCc1c(F)cccc1Cl)C1CC1 [RU-I2]	–	–	–	–	–	–	pIC50 [1, 5]: 4.70 to 5.70; pIC50 [2, 6]: 4.70 to 5.70; pIC50 [3, 7]: > 5.70; pIC50 [4, 8]: < 4.70
Cc1nn(-c2ccc(Cl)cc2)c(C)c1C(=O)NCc1ccccn1 [RU-0048608]	< 25	> 75	–	26 to 50	< 25	> 7.00	–
Cc1ccccc1C(=O)N[C@@H]1CCCCC1NC(=O)C1CCN(C(=O)c2ccc(C(C)(C)C)cc2)CC1 (stereo partly drawn) [RU-0045678]	26 to 50	> 75	–	26 to 50	< 25	> 7.00	–
